# Assay results taken from US11492325B2, “Compounds as inhibitors of sodium channels” (Human BioMolecular Research Institute, priority 2016, dated 2022).
# pIC50: −log10 of the molar value. Like-named read-outs stand apart in the source and are kept apart here.
# Experiments:
# [1] = Chemical stability in PBS buffer at pH 7.4 or 3.0, 37° C.; type: physicochemical; settings: 1% Ethanol
# Description: A typical incubation contained 100 μM of the test compound prepared in PBS buffer (pH 7.4 or 3.0, 50 mM) with 1% Ethanol. The test compounds were incubated at 37° C. An aliquot from incubations was taken at various times and injected onto an RP-HPLC system as described above. Disappearance of the analyte was monitored over time.
# [2] = Metabolism in human hepatic S9; settings: for Liver S-9 T1/2: s9
# Description: (§1) A typical incubation contained rat, mouse, dog or human liver microsomes (0.4-0.5 mg of protein), 100 mM potassium phosphate buffer (pH7.4), 50 μM test compound, an NADPH-generating system consisting of 0.5 mM NADP^+, 0.5 mM glucose-6-phosphate, 1 IU/mL glucose-6-phosphate dehydrogenase, 1 mg/mL diethylenetriaminepentaaceticacid (DETAPAC), and 3 mM MgCl2 in a final incubation volume of 0.25 mL. […] After centrifugation at 3000 rpm for 5 min, the organic fraction was collected, the solvent was removed with a stream of argon and the residue was reconstituted in 125 μL of MeOH and 125 μL H2O, mixed thoroughly, centrifuged at 13,000 rpm for 5 min and analyzed by high performance liquid chromatography. Samples were run on a Hitachi D-7000 HPLC system using a L-7100 analytical pump, L-7400 UV-Visible variable wavelength detector, and L-7600 automatic sample injector. […] Disappearance of the analyte was monitored over time. A plot of the area under the curve for the normalized analyte versus time afforded the half-life values and kapp.
# Microsomes contain CYPs and FMO metabolic enzymes. S9 contains soluble enzymes (i.e., aldehyde oxidase, MAO, etc.).
# [3] = Metabolic stability in human liver microsomes; type: in vitro ADME; settings: human, microsomes
# Description: as §1
# Male BALBc mice = settings: mice, 100 mg/kg; for behavioral effects at 100 mg/kg: enantiomers
# Excerpt: Male BALBc mice (20-22 g) were used throughout these studies. The animals were maintained in a temperature-controlled room with 12-hr periods of light and darkness and had continuous access to water and animal food. […] Groups contained 2-4 animals.
# [4] = system: cardiomyocytes derived from hiPSCs from a LQTS3 patient; settings: for LQT-EC50 (μM) Shortening: AP shortening
# [5] = system: normal human induced pluripotent stem cell (hiPSC) cardiomyocyte; assay: cells; settings: read-out: WT-EC50 (μM) Prolongation
# [6] = system: normal human induced pluripotent stem cell (hiPSC) cardiomyocyte; settings: for WT-Cessation Dose (μM): WT cardiomyocytes, cessation of beating; for WT-Fold Prolongation: APD
# [7] = system: cardiomyocytes derived from hiPSCs from a LQTS3 patient; assay: cells; settings: Homo sapiens, Cardiomyocyte, read-out: LQT-IC50 (uM)-Shortening
# [8] = biological target: Nav1.5 sodium channel, peak current (INaP) (Homo sapiens, UniProt Q14524, form not given); assay: in vitro; settings: Peak Na+ (INaP) IC50
# Description: (§2) This provided data to investigate the physiology and action of target compounds on individual ion channels. The assay used standardized protocols for culturing and conducting conventional whole cell recording that have been previously developed for both current and voltage-clamp to characterize action potentials using transfected cells. Briefly, the Nav1.5 sodium channel was transfected into HEK293 cells. […] Briefly, cells were plated on 0.1% gelatin-coated 35-mm plastic Petri dishes. […] Data was reported as IC50 values±STD (Table 1).
# [9] = biological target: Nav1.5 sodium channel transfected into HEK293 cells (Homo sapiens, UniProt Q14524); assay: in vitro; settings: for DNap/NaL: ratio peak IC50/late IC50
# Description: as §2
# [10] = biological target: hERG potassium channel (IKr) (Homo sapiens, UniProt Q12809); assay: Automated patch clamp, hERG (IKr) expressed in CHO cells; settings: for pIC50: hERG (IKr) IC50, CHO cells; for DKr/NaL: ratio hERG IC50/late Na IC50; for DNaP/Kr: ratio peak Na IC50/hERG IC50
# [11] = pH 3, 100 μM in PBS, read-out: Half-Life @ pH 3.0 and 37° C.
# [12] = pH 7.4, 100 μM in PBS, read-out: Half-Life @ pH 7.4 and 37° C.
# Sequence of hERG potassium channel (IKr) (Q12809 whole entry): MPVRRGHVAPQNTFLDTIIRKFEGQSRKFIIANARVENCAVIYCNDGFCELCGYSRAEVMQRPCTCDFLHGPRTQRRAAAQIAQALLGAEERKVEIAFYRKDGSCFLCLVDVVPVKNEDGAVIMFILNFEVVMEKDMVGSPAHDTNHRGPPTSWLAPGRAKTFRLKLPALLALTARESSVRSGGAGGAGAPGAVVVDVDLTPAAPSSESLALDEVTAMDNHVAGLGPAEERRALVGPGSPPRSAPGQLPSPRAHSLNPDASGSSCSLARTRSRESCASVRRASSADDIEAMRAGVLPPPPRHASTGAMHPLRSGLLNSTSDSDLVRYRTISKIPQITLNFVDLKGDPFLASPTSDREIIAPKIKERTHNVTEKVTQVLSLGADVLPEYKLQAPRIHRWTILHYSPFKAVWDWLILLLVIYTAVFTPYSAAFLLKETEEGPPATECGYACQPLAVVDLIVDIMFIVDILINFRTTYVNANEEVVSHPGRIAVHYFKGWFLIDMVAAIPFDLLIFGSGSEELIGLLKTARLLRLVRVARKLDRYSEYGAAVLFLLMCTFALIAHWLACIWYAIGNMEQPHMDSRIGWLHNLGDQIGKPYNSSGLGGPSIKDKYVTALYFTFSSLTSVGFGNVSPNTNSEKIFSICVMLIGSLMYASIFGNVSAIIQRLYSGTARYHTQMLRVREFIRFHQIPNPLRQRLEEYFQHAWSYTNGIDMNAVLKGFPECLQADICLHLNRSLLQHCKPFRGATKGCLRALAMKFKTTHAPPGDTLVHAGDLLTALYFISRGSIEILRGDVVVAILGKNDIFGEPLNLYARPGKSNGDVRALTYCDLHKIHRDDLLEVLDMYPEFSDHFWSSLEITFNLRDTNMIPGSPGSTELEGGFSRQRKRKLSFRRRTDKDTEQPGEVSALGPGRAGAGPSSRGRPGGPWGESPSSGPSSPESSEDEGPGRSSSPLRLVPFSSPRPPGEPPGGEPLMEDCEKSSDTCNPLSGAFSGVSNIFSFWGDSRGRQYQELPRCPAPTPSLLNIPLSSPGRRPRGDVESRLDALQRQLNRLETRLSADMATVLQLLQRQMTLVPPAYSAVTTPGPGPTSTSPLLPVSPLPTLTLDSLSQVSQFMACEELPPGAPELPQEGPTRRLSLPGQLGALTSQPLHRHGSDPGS
compound,measurement,setting,value
Cc1ccccc1OCC(N)c1ccccc1 (stereo not drawn) [drawing 311],half-life at 100 μM,[1]; [11],> 15 days
Cc1ccccc1OCC(N)c1ccccc1.Cl (stereo in doubt) [(S)-25],"Liver S-9, remaining after 1 hr","[2]; human, s9, 1 h",>95% after 1 hr
NC(COc1ccccc1C(F)(F)F)c1ccccc1 (stereo not drawn) [drawing 312],half-life at 100 μM,[1]; [11],> 15 days
same,half-life at 100 μM,[1]; [12],> 30 days
Cc1cc(C)cc(OCC(N)c2ccccc2)c1.Cl (stereo in doubt) [(R)-70],Liver S-9 T1/2,[2]; human,0.7049 days
same,Liver Microsomes T1/2,[3],0.282 days
same,Behavior Effect (R)-enantiomer,Male BALBc mice,No detectable effect
same,behavioral effects at 100 mg/kg,Male BALBc mice,no apparent behavioral effects
Cc1ccccc1OCC(N)c1ccccc1.Cl (stereo in doubt) [(R)-25],Liver S-9 T1/2,[2]; human,0.283 days
NC(COc1cnccc1C(F)(F)F)c1ccccc1 (stereo not drawn) [Compound 115],LQT-Fold Shortening,[4]; LQT-3 cardiomyocytes,Does Not Shorten
same,LQT-Shortening Dose (μM),[4]; LQT-3 cardiomyocytes,Does Not Shorten
same,LQT-EC50 (μM) Shortening,[4]; LQT-3 cardiomyocytes,Does Not Shorten
same,EC50,[5],25.7 µM
same,WT-Cessation Dose (μM),[6],No cessation of beating
Cc1cncc(OCC(N)c2ccccc2)c1 (stereo not drawn) [Compound 113],LQT-Fold Shortening,[4]; LQT-3 cardiomyocytes,Does Not Shorten
same,LQT-Shortening Dose (μM),[4]; LQT-3 cardiomyocytes,Does Not Shorten
same,LQT-EC50 (μM) Shortening,[4]; LQT-3 cardiomyocytes,Does Not Shorten
same,EC50,[5],7.24 µM
NC(COc1cc(C(F)(F)F)cc(C(F)(F)F)c1)c1ccccc1 (stereo not drawn) [drawing 310],half-life at 100 μM,[1]; [11],> 30 days
same,half-life at 100 μM,[1]; [12],30 days
"Cc1cccc(C)c1OC[C@@H](C)N [(R)-Mexiletine, reference compound]","Liver S-9, remaining after 1 hr","[2]; human liver S-9, 1 hr",>95% after 1 hr
"Cc1cccc(C)c1OC[C@H](C)N [(S)-Mexiletine, reference compound]","Liver S-9, remaining after 1 hr","[2]; human liver S-9, 1 hr",>95% after 1 hr
Cl.NC(COc1cc(C(F)(F)F)cc(C(F)(F)F)c1)c1ccccc1 (stereo in doubt) [(R)-78],"Liver S-9, remaining after 1 hr","[2]; human, s9, 1 h",>95% after 1 hr
same,"Liver Microsomes, remaining after 1 hr",[3],>95% after 1 hr
same,Behavior Effect (R)-enantiomer,Male BALBc mice,No detectable effect
same,behavioral effects at 100 mg/kg,Male BALBc mice,no apparent behavioral effects
Cc1ccnc(C)c1OCC(N)c1ccccc1 (stereo not drawn) [Compound 118],LQT-Fold Shortening,[4]; LQT-3 cardiomyocytes,Does Not Shorten
same,LQT-Shortening Dose (μM),[4]; LQT-3 cardiomyocytes,Does Not Shorten
same,LQT-EC50 (μM) Shortening,[4]; LQT-3 cardiomyocytes,Does Not Shorten
same,EC50,[5],8.22 µM
same,WT-Cessation Dose (μM),[6],No cessation of beating
"Cc1cccc(C)c1OCC(N)C(C)(C)C (stereo not drawn) [Compound 12, 1-(2,6-dimethylphenoxy)-3,3-dimethylbutan-2-amine]",LQT-Cessation Dose,[4]; LQT3 cardiomyocytes,22 µM
same,LQT-Fold Shortening,[4]; LQT3 cardiomyocytes,1.182
same,IC50,[7],0.648 µM
same,pIC50,[8],4.04
same,pIC50,[9],4.96
same,DNap/NaL,[9],8.3
same,pIC50,[10],4.31
same,DKr/NaL,[10],4.5
same,DNaP/Kr,[10],1.9
same,WT-Fold Prolongation,[6]; normal hiPSC cardiomyocytes,>4
same,WT-EAD Dose,[6]; normal hiPSC cardiomyocytes,7.4 µM
Cc1cc(C)cc(OCC(N)c2ccccc2)c1.Cl (stereo in doubt) [(S)-70],"Liver S-9, remaining after 1 hr","[2]; human, s9, 1 h",>95% after 1 hr
same,"Liver Microsomes, remaining after 1 hr",[3],>95% after 1 hr
same,Behavior Effect (S)-enantiomer,Male BALBc mice,2/4 lethargic
same,behavioral effects at 100 mg/kg,Male BALBc mice,Minor lethargy
Cc1cc(C)cc(OCC(C)N)c1 (stereo not drawn) [Compound 55],LQT-Cessation Dose,[4]; LQT3 cardiomyocytes,200 µM
same,LQT-Fold Shortening,[4]; LQT3 cardiomyocytes,1.232
same,IC50,[7],4.45 µM
same,pIC50,[8],3.81
same,pIC50,[9],4.77
same,DNap/NaL,[9],9.1
same,pIC50,[10],4.31
same,DKr/NaL,[10],2.9
same,DNaP/Kr,[10],3.1
same,WT-Fold Prolongation,[6]; normal hiPSC cardiomyocytes,1.159
same,Cessation of Beating,[6]; normal hiPSC cardiomyocytes,None
Cl.NC(COc1cc(C(F)(F)F)cc(C(F)(F)F)c1)c1ccccc1 (stereo in doubt) [(S)-78],Liver S-9 T1/2,[2]; human,0.7222 days
same,"Liver Microsomes, remaining after 1 hr",[3],>95% after 1 hr
same,Behavior Effect (S)-enantiomer,Male BALBc mice,2/4 shaking
same,behavioral effects at 100 mg/kg,Male BALBc mice,Minor lethargy
Cc1cc(C)cc(OCC(N)c2ccccc2)c1 (stereo not drawn) [drawing 309],half-life at 100 μM,[1]; [11],> 30 days
same,half-life at 100 μM,[1]; [12],> 30 days
"Cc1ccccc1OCC(C)N (stereo not drawn) [Compound 9, 1-(2-Methylphenoxy)propan-2-amine]",LQT-Cessation Dose,[4]; LQT3 cardiomyocytes,None
same,LQT-Fold Shortening,[4]; LQT3 cardiomyocytes,1.28
same,IC50,[7],0.76 µM
same,pIC50,[8],3.79
same,pIC50,[9],4.28
same,DNap/NaL,[9],3.1
same,pIC50,[10],4.01
same,DKr/NaL,[10],1.9
same,DNaP/Kr,[10],1.7
same,WT-Fold Prolongation,[6]; normal hiPSC cardiomyocytes,2.363
same,WT-EAD Dose,[6]; normal hiPSC cardiomyocytes,200 µM
Cl.NC(COc1ccccc1C(F)(F)F)c1ccccc1 (stereo in doubt) [(S)-82],"Liver S-9, remaining after 1 hr","[2]; human, s9, 1 h",>95% after 1 hr
same,Liver Microsomes T1/2,[3],0.253 days
same,Behavior Effect (S)-enantiomer,Male BALBc mice,2/4 slightly lethargic
same,behavioral effects at 100 mg/kg,Male BALBc mice,Minor lethargy
Cc1cccc(C)c1OCC(N)C1CC1 (stereo not drawn) [Compound 10],LQT-Cessation Dose,[4]; LQT3 cardiomyocytes,200 µM
same,LQT-Fold Shortening,[4]; LQT3 cardiomyocytes,1.162
same,IC50,[7],0.8 µM
same,pIC50,[8],3.89
same,pIC50,[9],5.14
same,DNap/NaL,[9],18.0
same,pIC50,[10],4.52
same,DKr/NaL,[10],4.1
same,DNaP/Kr,[10],4.3
same,WT-Fold Prolongation,[6]; normal hiPSC cardiomyocytes,2.262
same,WT-EAD Dose,[6]; normal hiPSC cardiomyocytes,66 µM
Cc1ccncc1OCC(N)c1ccccc1 (stereo not drawn) [Compound 112],LQT-Fold Shortening,[4]; LQT-3 cardiomyocytes,Does Not Shorten
same,LQT-Shortening Dose (μM),[4]; LQT-3 cardiomyocytes,Does Not Shorten
same,LQT-EC50 (μM) Shortening,[4]; LQT-3 cardiomyocytes,Does Not Shorten
same,EC50,[5],19.4 µM
same,WT-Cessation Dose (μM),[6],No cessation of beating
"NC(COc1ccccc1C(F)(F)F)c1ccccc1 (stereo not drawn) [Compound 27, 1-phenyl-2-(2-(trifluoromethyl)phenoxy)ethanamine]",LQT-Cessation Dose,[4]; LQT3 cardiomyocytes,66 µM
same,LQT-Fold Shortening,[4]; LQT3 cardiomyocytes,1.783
same,IC50,[7],> 0.8 µM
same,pIC50,[8],4.39
same,pIC50,[9],5.98
same,DNap/NaL,[9],39.5
same,pIC50,[10],4.43
same,DKr/NaL,[10],36.1
same,DNaP/Kr,[10],1.1
same,WT-Fold Prolongation,[6]; normal hiPSC cardiomyocytes,None
same,Cessation of Beating,[6]; normal hiPSC cardiomyocytes,66 µM
same,WT-Prolongation Dose,[6]; normal hiPSC cardiomyocytes,None
COCCNC(COc1ccncc1)c1ccccc1 (stereo not drawn) [Compound 127],LQT-Fold Shortening,[4]; LQT-3 cardiomyocytes,Does Not Shorten
same,LQT-Shortening Dose (μM),[4]; LQT-3 cardiomyocytes,Does Not Shorten
same,LQT-EC50 (μM) Shortening,[4]; LQT-3 cardiomyocytes,Does Not Shorten
same,EC50,[5],97.7 µM
same,WT-Cessation Dose (μM),[6],No cessation of beating
